Test results published in ChEMBL document CHEMBL3297656, “New coumarin derivatives: design, synthesis and use as inhibitors of hMAO” (Bioorg Med Chem, 2014).

Key:
[1] = molecular target: T1, Amine oxidase [flavin-containing] B (Homo sapiens, UniProt P27338); test: Inhibition of human recombinant MAO-B assessed as H2O2 production using p-tyramine substrate at 60 uM by fluorimetric method
T1 sequence (P27338 whole entry): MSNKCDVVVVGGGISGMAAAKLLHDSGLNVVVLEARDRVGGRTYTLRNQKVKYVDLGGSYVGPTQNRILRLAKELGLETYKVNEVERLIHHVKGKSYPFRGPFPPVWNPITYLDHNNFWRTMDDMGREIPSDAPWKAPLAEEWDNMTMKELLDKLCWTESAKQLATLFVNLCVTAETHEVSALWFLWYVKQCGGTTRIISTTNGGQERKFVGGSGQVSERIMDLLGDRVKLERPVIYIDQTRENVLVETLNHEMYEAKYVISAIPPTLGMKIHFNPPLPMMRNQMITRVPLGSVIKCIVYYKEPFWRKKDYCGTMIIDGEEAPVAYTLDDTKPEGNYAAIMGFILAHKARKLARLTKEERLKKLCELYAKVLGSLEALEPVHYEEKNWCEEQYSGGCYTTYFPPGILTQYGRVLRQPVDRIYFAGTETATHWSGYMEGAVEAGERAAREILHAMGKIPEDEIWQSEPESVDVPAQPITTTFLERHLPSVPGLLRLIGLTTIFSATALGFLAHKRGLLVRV

[2] = molecular target: T2, Amine oxidase [flavin-containing] A (Homo sapiens, UniProt P21397); test: Inhibition of human recombinant MAO-A assessed as H2O2 production using p-tyramine substrate at 60 uM by fluorimetric method
T2 sequence (P21397 whole entry): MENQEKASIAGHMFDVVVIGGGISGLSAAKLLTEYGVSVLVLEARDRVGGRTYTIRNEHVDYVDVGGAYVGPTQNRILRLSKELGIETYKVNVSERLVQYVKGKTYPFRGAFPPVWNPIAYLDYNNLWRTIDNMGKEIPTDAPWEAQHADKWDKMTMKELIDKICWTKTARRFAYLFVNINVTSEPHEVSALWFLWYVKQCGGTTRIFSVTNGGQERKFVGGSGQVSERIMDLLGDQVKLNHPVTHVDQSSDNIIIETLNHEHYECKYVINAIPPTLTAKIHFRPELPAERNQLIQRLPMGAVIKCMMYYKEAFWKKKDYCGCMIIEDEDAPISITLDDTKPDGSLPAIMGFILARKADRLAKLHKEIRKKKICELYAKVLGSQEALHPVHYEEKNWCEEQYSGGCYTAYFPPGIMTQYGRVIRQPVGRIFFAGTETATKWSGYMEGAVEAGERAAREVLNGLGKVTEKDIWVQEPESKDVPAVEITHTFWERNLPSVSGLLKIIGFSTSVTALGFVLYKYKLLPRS

[3] = molecular target: T1, Amine oxidase [flavin-containing] B; test: Inhibition of human recombinant MAO-B assessed as H2O2 production using p-tyramine substrate by fluorimetric method
Homo sapiens = organism: Homo sapiens; test: Selectivity index, ratio of IC50 for human recombinant MAO-A to IC50 for human recombinant MAO-B
[4] = molecular target: T2, Amine oxidase [flavin-containing] A; test: Inhibition of human recombinant MAO-A assessed as H2O2 production using p-tyramine substrate by fluorimetric method

SMILES: CCCCCCN(CCCCCC)C(=O)c1cc2cc([N+](=O)[O-])ccc2oc1=O
- inhibition (INH) [1]: Not Active
- inhibition (INH) [2]: Not Active

SMILES: O=C(Sc1ncccn1)c1cc2ccccc2oc1=O
- IC50 [3]: 7.68 µM
- inhibition (INH) [2]: Not Active
- Ratio IC50 (Homo sapiens): 7.8

SMILES: CCCCCCN(CCCCCC)C(=O)c1cc2cc(Br)cc(Br)c2oc1=O
- IC50 [3]: 7.41 µM
- IC50 [4]: 10.1 µM
- Ratio IC50 (Homo sapiens): 1.4

SMILES: O=C(SCc1ccco1)c1cc2ccccc2oc1=O
- IC50 [3]: 0.21 µM
- IC50 [4]: 39.7 µM
- Ratio IC50 (Homo sapiens): 189

SMILES: CC(C)NC(=O)c1cc2cc([N+](=O)[O-])ccc2oc1=O
- inhibition (INH) [1]: Not Active
- inhibition (INH) [2]: Not Active

SMILES: CC(C)NC(=O)c1cc2cc(Br)cc(Br)c2oc1=O
- IC50 [3]: 10.3 µM
- IC50 [4]: 22.7 µM
- Ratio IC50 (Homo sapiens): 2.2

SMILES: CC(C)(C)NC(=O)c1cc2ccccc2oc1=O
- IC50 [3]: 7.9 µM
- IC50 [4]: 40.4 µM
- Ratio IC50 (Homo sapiens): 5.1

SMILES: CC(C)(C)NC(=O)c1cc2cc([N+](=O)[O-])ccc2oc1=O
- inhibition (INH) [1]: Not Active
- inhibition (INH) [2]: Not Active

SMILES: O=C(Sc1ccc(Br)cc1)c1cc2cc(C(F)(F)F)ccc2oc1=O
- IC50 [3]: 15.2 µM
- inhibition (INH) [2]: Not Active
- Ratio IC50 (Homo sapiens): 3.9

SMILES: O=C(Sc1ccc(Br)cc1)c1cc2cc(Br)c(Br)cc2oc1=O
- IC50 [3]: 25.2 µM
- inhibition (INH) [2]: Not Active
- Ratio IC50 (Homo sapiens): 2.4

SMILES: CC(C)NC(=O)c1cc2ccccc2oc1=O
- IC50 [4]: 35.5 µM

SMILES: CCC(C)NC(=O)c1cc2cc([N+](=O)[O-])ccc2oc1=O (stereo not drawn)
- IC50 [3]: 17.4 µM
- inhibition (INH) [2]: Not Active
- Ratio IC50 (Homo sapiens): 3.4

SMILES: O=C(SCc1ccco1)c1cc2cc([N+](=O)[O-])ccc2oc1=O
- IC50 [3]: 13.1 µM
- IC50 [4]: 48.3 µM
- Ratio IC50 (Homo sapiens): 2.9

SMILES: O=C(Sc1ccc(Br)cc1)c1cc2cc([N+](=O)[O-])ccc2oc1=O
- IC50 [3]: 20.7 µM
- inhibition (INH) [2]: Not Active
- Ratio IC50 (Homo sapiens): 2.6

SMILES: O=C(Sc1ccc(Br)cc1)c1cc2ccccc2oc1=O
- IC50 [3]: 6.5 µM
- IC50 [4]: 22.7 µM
- Ratio IC50 (Homo sapiens): 3.5

SMILES: CCCCSC(=O)c1cc2ccccc2oc1=O
- IC50 [3]: 16 µM
- inhibition (INH) [2]: Not Active
- Ratio IC50 (Homo sapiens): 3.8

SMILES: O=C(SCc1ccco1)c1cc2cc(Br)c(Br)cc2oc1=O
- IC50 [3]: 5.68 µM
- inhibition (INH) [2]: Not Active
- Ratio IC50 (Homo sapiens): 10.6

SMILES: CCC(C)NC(=O)c1cc2cc(Br)cc(Br)c2oc1=O (stereo not drawn)
- IC50 [3]: 45.4 µM
- IC50 [4]: 42.3 µM
- Ratio IC50 (Homo sapiens): 0.9

SMILES: CCCCSC(=O)c1cc2cc(Br)c(Br)cc2oc1=O
- inhibition (INH) [1]: Not Active
- inhibition (INH) [2]: Not Active

SMILES: CCCCSC(=O)c1cc2cc([N+](=O)[O-])ccc2oc1=O
- inhibition (INH) [1]: Not Active
- inhibition (INH) [2]: Not Active
